{"source": "patent US20260158172A1", "about": "“CELL DEATH METHOD USING CRISPR/CAS SYSTEM HAVING SINGLE-STRAND BREAK ACTIVITY AND PARP INHIBITOR” (INSTITUTE FOR BASIC SCIENCE, priority 2023, published 2026)", "format_in_all_cases": "cell-based", "key": {"HCT-116 cells [1]": {"system": "HCT-116 cells", "test": "Cell viability (CellTiter-Glo), Experimental Example 4: dependence on olaparib concentration", "conditions": "nCas9 D10A RNP or siRNA co-treatment, Non-treated (label Olaparib) = PARP inhibitor only", "method": "(§1) To transfect RNPs, cells were transfected with 665 ng of the Cas protein of each Embodiment and 95 ng of the sgRNA of each Embodiment using a Lipofectamine CRISPRMAX Cas9 Transfection Reagent (Invitrogen, #CMAX00015), and then cultured for 3 days. When treated together with a PARP inhibitor, the PARP inhibitor was treated according to Experimental Example 1.6, and the RNPs were treated one day thereafter.\n(§2) To compare cell death effects depending on the concentration of a PARP inhibitor administered, the following experiment was performed. Specifically, Hela cells and HCT-116 cells cultured according to Experimental Example 1.1 were treated with a PARP inhibitor (olaparib) and a CRISPR/nCas composition for cell death having the compositions shown in the following table.\n(§3) For each labeled material, experiments were conducted while varying the concentration of olaparib.\n(§4) Here, in the case of siRNA, an siRNA having the sequence […] (SEQ ID NO: 40) was used, and 20 pmole thereof was delivered to the cells according to Experimental Example 1.7. After the experiment, cell viability was measured according to Experimental Example 1.8."}, "HeLa cells [2]": {"system": "HeLa cells", "test": "Cell viability (CellTiter-Glo), Experimental Example 4: dependence on olaparib concentration", "conditions": "nCas9 D10A RNP or siRNA co-treatment, Non-treated (label Olaparib) = PARP inhibitor only", "method": "as §1, §2, §3, §4"}, "HCT-116 cells [3]": {"system": "HCT-116 cells", "test": "Cell viability (CellTiter-Glo), Experimental Example 2: CRISPR/nCas composition for cell death with or without olaparib", "conditions": "relative cell viability, HCT-116, Olaparib (+): olaparib 1 μM, sgRNA delivered as nCas9 D10A RNP, Mock = no guide RNA", "method": "(§5) A total of 0.5×10^4 cells were mixed with 1 μM olaparib (AZD2281) (Selleckchem, #S1060), 1 μM rucaparib (Selleckchem, #S4948), 0.1 μM niraparib (MK-4827) (Selleckchem, #S2741), 2 μM veliparib (ABT-888) (Selleckchem, #S1004), or 10 µM iniparib (BSI-201) (Selleckchem, #S1087), and seeded onto 24-well plates.\nas §1\n(§6) Cell viability was measured using a CellTiter-Glo Luminescent Cell Viability Assay (Promega, #G7571). After the transfected cells were cultured for 3 days, the cells were detached using Trypsin-EDTA (0.25%) (Gibco, #25200056). The cells were diluted in 400 μL of DMEM, followed by dispensing 100 μL of the cells, mixed with 100 μL of the CellTiter-Glo Reagent, and then incubated at room temperature for 10 minutes. Luminescence signals were measured using an Infinite 200 (Tecan) in a white opaque 96-well plate (Corning, #3917).\n(§7) To evaluate the cell death effects of a CRISPR/nCas composition for cell death and a PARP inhibitor, the following experiment was conducted. Specifically, Hela cells and HCT-116 cells cultured according to Experimental Example 1.1 were treated with a PARP inhibitor (olaparib) and a CRISPR/nCas composition for cell death having the compositions shown in the following table.\n(§8) The nCas protein used in this experiment was prepared according to Experimental Example 1.2, and the sgRNA used was prepared according to Experimental Example 1.3. The nCas protein and the sgRNA were administered to the cells in the form of RNPs according to Experimental Example 1.7. In the case of the PARP inhibitor, the concentrations disclosed in the above table were applied to each cell according to Experimental Example 1.6.\n(§9) Thereafter, cell viability was measured according to Experimental Example 1.8."}, "HeLa cells [4]": {"system": "HeLa cells", "test": "Cell viability (CellTiter-Glo), Experimental Example 2: CRISPR/nCas composition for cell death with or without olaparib", "conditions": "relative cell viability, sgRNA delivered as nCas9 D10A RNP, Mock = no guide RNA", "method": "as §5, §1, §6, §7, §8, §9"}, "HCT-116 cells [5]": {"system": "HCT-116 cells", "test": "Cell viability (CellTiter-Glo), Experimental Example 5: type of PARP inhibitor", "conditions": "olaparib 1 μM, rucaparib 1 μM, niraparib 0.1 μM, veliparib 2 μM", "method": "as §5, §1, §6\n(§10) Specifically, Hela cells and HCT-116 cells cultured according to Experimental Example 1.1 were treated with a PARP inhibitor and a CRISPR/nCas composition for cell death having the compositions shown in the following table.\n(§11) For each RNP composition of the embodiment using nCas9^D10A, one PARP inhibitor selected from olaparib, rucaparib, niraparib, veliparib, and iniparib was co-administered. DMSO was used as a control.\n(§12) The Cas protein and the nCas protein used in this experiment were prepared according to Experimental Example 1.2, and the sgRNA used was prepared according to Experimental Example 1.3. The nCas protein and the sgRNA were administered to the cells in the form of RNPs according to Experimental Example 1.7. The cells were each treated with the respective PARP inhibitors at the concentrations disclosed in Experimental Example 1.6 using the materials disclosed in the above table.\nas §9"}, "HeLa cells [6]": {"system": "HeLa cells", "test": "Cell viability (CellTiter-Glo), Experimental Example 5: type of PARP inhibitor", "conditions": "olaparib 1 μM, rucaparib 1 μM, niraparib 0.1 μM, veliparib 2 μM", "method": "as §5, §1, §6, §10, §11, §12, §9"}, "[7]": {"conditions": "olaparib 10 μM, listed as olaparib"}, "[8]": {"conditions": "PARP inhibitor with nCas9^D10A, Target = Mock (PBS instead of sgRNA)"}, "[9]": {"conditions": "drug_only (no Cas protein, no guide RNA)"}}}
{"compound": "O=C(c1cc(Cc2n[nH]c(=O)c3ccccc23)ccc1F)N1CCN(C(=O)C2CC2)CC1", "note": "[Olaparib, olaparib]", "values": [{"measurement": "Relative cell viability (average, n = 3)", "setting": "HCT-116 cells [1]; olaparib 0.0001 μM", "value": 1.0000}, {"measurement": "Relative cell viability (average, n = 3)", "setting": "HCT-116 cells [1]; olaparib 0.001 μM", "value": 0.9939}, {"measurement": "Relative cell viability (average, n = 3)", "setting": "HCT-116 cells [1]; olaparib 0.01 μM", "value": 0.9743}, {"measurement": "Relative cell viability (average, n = 3)", "setting": "HCT-116 cells [1]; olaparib 0.1 μM", "value": 1.0072}, {"measurement": "Relative cell viability (average, n = 3)", "setting": "HCT-116 cells [1]; olaparib 1 μM", "value": 1.0307}, {"measurement": "Relative cell viability (average, n = 3)", "setting": "HCT-116 cells [1]; olaparib 10 μM", "value": 0.7979}, {"measurement": "Relative cell viability (average, n = 3)", "setting": "HCT-116 cells [1]; [7]", "value": "exhibits cytotoxicity"}, {"measurement": "Relative cell viability (average, n = 3)", "setting": "HeLa cells [2]; olaparib 0.0001 μM", "value": 1.0000}, {"measurement": "Relative cell viability (average, n = 3)", "setting": "HeLa cells [2]; olaparib 0.001 μM", "value": 0.9810}, {"measurement": "Relative cell viability (average, n = 3)", "setting": "HeLa cells [2]; olaparib 0.01 μM", "value": 0.9959}, {"measurement": "Relative cell viability (average, n = 3)", "setting": "HeLa cells [2]; olaparib 0.1 μM", "value": 0.9391}, {"measurement": "Relative cell viability (average, n = 3)", "setting": "HeLa cells [2]; olaparib 1 μM", "value": 0.9279}, {"measurement": "Relative cell viability (average, n = 3)", "setting": "HeLa cells [2]; olaparib 10 μM", "value": 0.1192}, {"measurement": "Relative cell viability (average, n = 3)", "setting": "HeLa cells [2]; [7]", "value": "exhibits cytotoxicity"}, {"measurement": "Average", "setting": "HCT-116 cells [3]; average of Rep 1-3", "value": 1.05}, {"measurement": "Rep 1 (rel)", "setting": "HCT-116 cells [3]", "value": 0.9889}, {"measurement": "Rep 2 (rel)", "setting": "HCT-116 cells [3]", "value": 1.027}, {"measurement": "Rep 3 (rel)", "setting": "HCT-116 cells [3]", "value": 1.131}, {"measurement": "Rep 1 (rel)", "setting": "HeLa cells [4]; Olaparib (+): olaparib 1 μM", "value": 1.163}, {"measurement": "Rep 2 (rel)", "setting": "HeLa cells [4]; Olaparib (+): olaparib 1 μM", "value": 0.967}, {"measurement": "Rep 3 (rel)", "setting": "HeLa cells [4]; Olaparib (+): olaparib 1 μM", "value": 1.02}, {"measurement": "Average", "setting": "HeLa cells [4]; average of Rep 1-3, Olaparib (+): olaparib 1 μM", "value": 1.05}, {"measurement": "Relative cell viability (average, n = 3)", "setting": "HCT-116 cells [5]; [8]", "value": 1.0164}, {"measurement": "Relative cell viability (average, n = 3)", "setting": "HCT-116 cells [5]; [9]", "value": 1.1219}, {"measurement": "Relative cell viability (average, n = 3)", "setting": "HeLa cells [6]; [8]", "value": 0.9135}, {"measurement": "Relative cell viability (average, n = 3)", "setting": "HeLa cells [6]; [9]", "value": 0.8856}]}
